These results are taken from ChEMBL document CHEMBL2016449, “Discovery of a novel chemotype of potent human ENaC blockers using a bioisostere approach. Part 2: α-Branched quaternary amines” (Bioorg Med Chem Lett, 2012).

A value given as a limit tells only on which side of the number the result lay.

The nature of assay [1]: Blockade of human ENaC expressed in HBE cells by short-circuit current assay. It counts as cell-based.
Assay [2] is described as follows: Blockade of guinea pig ENaC expressed in FRT cells by short-circuit current assay. Type of assay: cell-based. Conditions: Cavia porcellus.
Assay [3] deals with Cavia porcellus. Nature of the assay: Blockade of ENaC in intratracheally dosed Dunkin Hartley guinea pig tracheal potential difference model after 1 hr. Type of assay: functional. Conditions: inhaled or nasal.
The next assay relates to BE. The assay can be described thus: Ratio of amiloride IC50 to compound IC50 for human ENaC expressed in HBE cells. It counts as cell-based.
Assay [4] has as its system Cavia porcellus. Nature of the assay: Ratio of amiloride ED50 to compound ED50 for blockade of ENaC in intratracheally dosed Dunkin Hartley guinea pig. Type of assay: functional.

As for `CCCC[C@@H](CNC(=O)c1nc(Cl)c(N)nc1N)[N+](C)(C)C`, the IC50 – broadly, the point on the concentration scale where inhibition reaches its midpoint – in assay [1] amounted to 59 nM. Compound `C[N+](C)(C)[C@H](CNC(=O)c1nc(Cl)c(N)nc1N)Cc1ccccc1` had an IC50 in assay [1] of 170 nM. `CCC[C@@H](CNC(=O)c1nc(Cl)c(N)nc1N)[N+](C)(C)C.[I-]`: the IC50 in assay [2] and in assay [1] was 30 nM each time. In addition, in the assay on Cavia porcellus [3], the ED50 (in general, the midpoint of the dose-response relation) amounted to 1 µg/kg. For the same compound, the Ratio IC50 in the assay with BE stood at 10. For the same compound, the “Ratio ED50” value with Cavia porcellus [4] is on record as 16. For the compound `CC(C)[C@H](CNC(=O)c1nc(Cl)c(N)nc1N)[N+](C)(C)C`, the midpoint of inhibition in assay [1], the IC50, lay at 19500 nM. As to `N/C(=N\C(=O)c1nc(Cl)c(N)nc1N)NCCCCc1ccc(OCC(O)CO)cc1` (configuration not stated) [552-02 FREE BASE], the IC50 is 4 nM in assay [2] and 2 nM in assay [1]. In the assay on Cavia porcellus [3], this compound came in with an ED50 of 0.2 µg/kg.

Take `CC(C)(CNC(=O)c1nc(Cl)c(N)nc1N)[N+](C)(C)C`: the IC50 in assay [1] was greater than 30000 nM.

As to `CCC[C@H](CNC(=O)c1nc(Cl)c(N)nc1N)[N+](C)(C)C`, the IC50 in assay [1] was 290 nM.

As to `N=C(N)NC(=O)c1nc(Cl)c(N)nc1N` [AMILORIDE], the values for the IC50 in assay [2] and in assay [1] were 540 nM and 220 nM, respectively. Further, in the assay on Cavia porcellus [3], the 50% effect level (ED50) was put at a dose of 16 µg/kg. Compound `C[C@@H](CNC(=O)c1nc(Cl)c(N)nc1N)[N+](C)(C)C` displayed an IC50 in assay [1] of 8090 nM. The same measure, in the same setting: with `CC(C)[C@@H](CNC(=O)c1nc(Cl)c(N)nc1N)[N+](C)(C)C` the figure was 2390 nM; with `CC[C@H](CNC(=O)c1nc(Cl)c(N)nc1N)[N+](C)(C)C`, 510 nM; with `C[C@H](CNC(=O)c1nc(Cl)c(N)nc1N)[N+](C)(C)C`, greater than 10000 nM. On the same count and under the same terms, for `CC[C@@H](CNC(=O)c1nc(Cl)c(N)nc1N)[N+](C)(C)C` the value was 750 nM; for `CCC[C@@H](CNC(=O)c1nc(Cl)c(N)nc1N)[N+](C)(C)CCCc1ccc(OC)cc1`, 4 nM.
